Data published in patent publication US20230416328A1, “C-Type Natriuretic Peptides and Methods Thereof in Treating Acute Lung Injury” (priority 2020, published 2023).
Numbered stars: 1 amine (or outer) side, 2 acyl side, 3 side chain; on linkers, the order of the positions; unused ones are H or OH. Bridge positions count the residues as written; N and C are the ends. Square brackets hold non-standard residues; d marks the D form. Peptide text beside a SMILES is read from it. * marks the point of attachment. C18 diacid = O=C(O)CCCCCCCCCCCCCCCCC(=O)*; γGlu = O=C(O)[C@H](CCC(=O)[*:2])N[*:1]; Aad = N[C@@H](CCCC(=O)O)C(=O)O; AEEA = NCCOCCOCC(=O)O

Experiments:
[1] = Pharmacokinetic study of dCNP-s1 and dCNP-s2: plasma CNP (ELISA) in CD-1 mice; type: in vivo; conditions: 2.0 mg/Kg s.c. bolus, FIG. 20
Procedure: For this pharmacokinetic study, all animals (mice) for this study were maintained under a 12-hour light/12-hour dark cycle with free access to water and standard mouse diet (Lab Pico Rodent #5053; Animal Specialties, Woodburn, OR). Male CD-1 mice (6-8 weeks old; Charles River, Hollister, CA) were treated with 2.0 mg/Kg of CNP derivative s1 (dCNP-s1; PharmaIN Corp, Bothell, WA), and CNP derivative s2 (dCNP-s2; PharmaIN Corp, Bothell, WA) via subcutaneous administration between the shoulder blades.

[2] = in vivo; cited from earlier work
[3] = Pharmacokinetic study: plasma CNP (ELISA) after subcutaneous bolus in CD-1 mice
Procedure: All test articles were formulated or dissolved in 100 mM sorbitol, 100 mM methionine, 20 mM histidine, pH 6.0. […] Blood samples were processed in K2EDTA tubes to obtain plasma. Plasma was analyzed by commercially available CNP ELISA kit from Phoenix Pharmaceuticals (cat #EKE-012-03).

[4] = species not stated; cited from earlier work
[5] = healthy human volunteers, bolus injection; cited from earlier work
[6] = test system: LPS-induced sepsis; assay: LPS-induced sepsis lethality in Balb/c mice (survival); type: in vivo; conditions: LPS 10 mg/kg i.p., 1.0 mg/kg s.c.
Procedure: Male Balb/c mice (11 week) were purchased from Kyudo (Saga, Japan) and maintained under a 12-hour light/12-hour dark cycle with free access to water and standard mouse diet (MF diet, Oriental Yeast Co., Ltd. Tokyo, Japan). […] Test articles were administered right after LPS administration. Survival was observed every 2 hours.
Table 1. […] Shown is the % survival by hours. […] Survival was observed every 2 hours (FIGS. 13A and 13B). First mortality observed was in Italicized and bold and the last observation survival % was in bold in the table.

[7] = hours '0' [sic] (second to last observation)

Compound	Percent animal survival at various time after LPS administration ([6]; hours 1 (last observation)) [%]	Percent animal survival at various time after LPS administration ([6]; hours 3 [sic]) [%]	Percent animal survival at various time after LPS administration ([6]; hours 7 [sic]) [%]	Percent animal survival at various time after LPS administration ([6]; hours 9 [sic]) [%]	Percent animal survival at various time after LPS administration ([6]; hours '0') [%]	Percent animal survival at various time after LPS administration [6, 7] [%]	Percent animal survival at various time after LPS administration ([6]; hours '2') [%]	Percent animal survival at various time after LPS administration ([6]; hours '8') [%]	other results
CC[C@H](C)[C@@H]1NC(=O)[C@H](CCCNC(=N)N)NC(=O)[C@H](CC(=O)O)NC(=O)[C@H](CC(C)C)NC(=O)[C@H](CCCCN)NC(=O)[C@H](CC(C)C)NC(=O)CNC(=O)[C@H](Cc2ccccc2)NC(=O)[C@@H](NC(=O)CNC(=O)COCCOCCNC(=O)COCCOCCNC(=O)CCCCCCCCCCCCCCCCC(=O)O)CSSC[C@@H](C(=O)O)NC(=O)CNC(=O)[C@H](CC(C)C)NC(=O)CNC(=O)[C@H](CO)NC(=O)[C@H](CCCC(N)=O)NC(=O)[C@H](CO)NC(=O)CNC1=O [dCNP-s1] ({C18 diacid-AEEA-AEEA}-GCFGLKLDRIGS[Aad](NH2)SGLGC-OH; disulfide 2-18)									blood level of CNP relative to native CNP at similar weight/Kg dose [1]: 10 fold
PGQEHPNARKYKGANKKGLS KGCFGLKLDR IGSMSGLGC (PGQEHPNARKYKGANKKGLSKGCFGLKLDRIGSMSGLGC) [BMN-111]									arterial blood pressure (BP) [2]: drops; heart rate (HR) [2]: increases
CC[C@H](C)[C@@H]1NC(=O)[C@H](CCCNC(=N)N)NC(=O)[C@H](CC(=O)O)NC(=O)[C@H](CC(C)C)NC(=O)[C@H](CCCCN)NC(=O)[C@H](CC(C)C)NC(=O)CNC(=O)[C@H](Cc2ccccc2)NC(=O)[C@@H](NC(=O)CNC(=O)COCCOCCNC(=O)COCCOCCNC(=O)CC[C@H](NC(=O)CCCCCCCCCCCCCCCCC(=O)O)C(=O)O)CSSC[C@@H](C(=O)O)NC(=O)CNC(=O)[C@H](CC(C)C)NC(=O)CNC(=O)[C@H](CO)NC(=O)[C@H](CCCC(N)=O)NC(=O)[C@H](CO)NC(=O)CNC1=O [dCNP-s2] ({C18 diacid-γGlu-AEEA-AEEA}-GCFGLKLDRIGS[Aad](NH2)SGLGC-OH; disulfide 2-18)									blood level of CNP relative to native CNP at similar weight/Kg dose [1]: 10 fold
CC[C@H](C)[C@@H]1NC(=O)[C@H](CCCNC(=N)N)NC(=O)[C@H](CC(=O)O)NC(=O)[C@H](CC(C)C)NC(=O)[C@H](CCCCN)NC(=O)[C@H](CC(C)C)NC(=O)CNC(=O)[C@H](Cc2ccccc2)NC(=O)[C@@H](NC(=O)CNC(=O)[C@H](CCCCN)NC(=O)[C@H](CO)NC(=O)[C@H](CC(C)C)NC(=O)CN)CSSC[C@@H](C(=O)O)NC(=O)CNC(=O)[C@H](CC(C)C)NC(=O)CNC(=O)[C@H](CO)NC(=O)[C@H](CCSC)NC(=O)[C@H](CO)NC(=O)CNC1=O [CNP]									plasma CNP ([3]; CD-1 mice, 2.0 mg/Kg s.c. bolus, FIG. 1A): low plasma level of CNP; half-life [4]: 2 to 13 min; heart rate [5]: significant increase in heart rate; systolic and diastolic blood pressure [5]: transient but significant decrease
CC[C@H](C)[C@@H]1NC(=O)[C@H](CCCNC(=N)N)NC(=O)[C@H](CC(=O)O)NC(=O)[C@H](CCSC)NC(=O)[C@H](CCCNC(=N)N)NC(=O)CNC(=O)CNC(=O)[C@H](Cc2ccccc2)NC(=O)[C@@H](NC(=O)[C@H](CO)NC(=O)[C@H](CO)NC(=O)[C@H](CCCNC(=N)N)NC(=O)[C@H](CCCNC(=N)N)NC(=O)[C@H](CC(C)C)NC(=O)[C@@H](N)CO)CSSC[C@@H](C(=O)N[C@@H](CC(N)=O)C(=O)N[C@@H](CO)C(=O)N[C@@H](Cc2ccccc2)C(=O)N[C@@H](CCCNC(=N)N)C(=O)N[C@@H](Cc2ccc(O)cc2)C(=O)O)NC(=O)CNC(=O)[C@H](CC(C)C)NC(=O)CNC(=O)[C@H](CO)NC(=O)[C@H](CCC(N)=O)NC(=O)[C@H](C)NC(=O)CNC1=O [ANP, atrial natriuretic peptide]	10	100	60	30	100	10	100	30	Percent animal survival at various time after LPS administration ([6]; hours printed '6' (r14)): 60%
B-type natriuretic peptide [BNP]	10	100	60	20	100	10	100	20	Percent animal survival at various time after LPS administration ([6]; hours printed '5' (r13)): 100%
CCCCCCCCCCCCCCCCCC(=O)N[C@@H](CCCCN)C(=O)N[C@@H](CCCCN)C(=O)N[C@@H](CCCCN)C(=O)N[C@@H](CCCCN)C(=O)NCC(=O)NCC(=O)NCC(=O)NCC(=O)N[C@@H](CC(C)C)C(=O)N[C@@H](CO)C(=O)N[C@@H](CCCCN)C(=O)NCC(=O)N[C@H]1CSSC[C@@H](C(=O)O)NC(=O)CNC(=O)[C@H](CC(C)C)NC(=O)CNC(=O)[C@H](CO)NC(=O)[C@H](CCSC)NC(=O)[C@H](CO)NC(=O)CNC(=O)[C@H]([C@@H](C)CC)NC(=O)[C@H](CCCNC(=N)N)NC(=O)[C@H](CC(=O)O)NC(=O)[C@H](CC(C)C)NC(=O)[C@H](CCCCN)NC(=O)[C@H](CC(C)C)NC(=O)CNC(=O)[C@H](Cc2ccccc2)NC1=O [dCNP]									plasma CNP ([3]; mouse, in vivo, sc, 2 mg/kg): sustained plasma presence
CCCc1nc(C)c2c(=O)[nH]c(-c3cc(S(=O)(=O)N4CCN(CC)CC4)ccc3OCC)nn12 [VDN, Vardenafil]	0	100	60	20	100	0	100	20	Percent animal survival at various time after LPS administration ([6]; hours printed '5' (r13)): 100%
